Experiment [1] addresses T1, Mitogen-activated protein kinase; ERK1/ERK2 (Homo sapiens) (UniProt P27361+P28482). Briefly: Reduction of ERK1/2 activation in human MDA-MB-435 cells at 20 uM after 1 hr by Western blot analysis. Format: cell-based. Background: Immunoblotting shows a protein as a band on a membrane.
Experiment [2] deals with Platelet-derived growth factor receptor beta (Homo sapiens, UniProt P09619). The experiment can be described thus: Inhibition of PDGFRbeta in human SF539 cells by phosphotyrosine cell-based ELISA. Also noted: species or system SF-539.
In experiment [3] the target is T1, Mitogen-activated protein kinase; ERK1/ERK2 (Homo sapiens). The experiment can be described thus: Reduction of ERK1/2 activation in human MDA-MB-435 cells at 20 uM after 4 hrs by Western blot analysis. It counts as cell-based.
The target in experiment [4] is T2, Dihydrofolate reductase (Escherichia coli) (UniProt P0ABQ4).
T2 sequence (whole entry): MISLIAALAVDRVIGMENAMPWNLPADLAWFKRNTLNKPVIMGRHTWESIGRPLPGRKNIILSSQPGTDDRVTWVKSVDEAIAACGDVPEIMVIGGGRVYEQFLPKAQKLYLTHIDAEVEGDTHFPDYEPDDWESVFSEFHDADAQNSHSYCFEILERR
The experiment can be described thus: Inhibition of Escherichia coli DHFR at IC50.

The target of experiment [5] is Epidermal growth factor receptor (Homo sapiens, UniProt P00533).
The target in experiment [6] is T3, Dihydrofolate reductase (Homo sapiens) (UniProt P00374).
T3 sequence (whole entry): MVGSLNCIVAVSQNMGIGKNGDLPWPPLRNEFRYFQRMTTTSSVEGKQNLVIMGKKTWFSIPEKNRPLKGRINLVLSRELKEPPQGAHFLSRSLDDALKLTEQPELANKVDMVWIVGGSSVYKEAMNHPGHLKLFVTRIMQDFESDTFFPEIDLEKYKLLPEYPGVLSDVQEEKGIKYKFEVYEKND
The experiment can be described thus: Inhibition of human DHFR at IC50.

A further experiment deals with T4, Dihydrofolate reductase (Homo sapiens, UniProt P00374).
T4 sequence (P00374 whole entry): T3 sequence (whole entry)
Briefly: Inhibition of human DHFR.

Experiment [7] deals with Vascular endothelial growth factor receptor 1 (Homo sapiens, UniProt P17948). The experiment can be described thus: Inhibition of VEGFR1 in human A498 cells by phosphotyrosine cell-based ELISA. (In general: In an ELISA, binding on a coated surface is turned into a signal by an enzyme label.)
The target of experiment [8] is Vascular endothelial growth factor receptor 2 (Homo sapiens, UniProt P35968).
The target of experiment [9] is T5, Receptor-type tyrosine-protein kinase FLT3 (Homo sapiens, UniProt P36888).
T5 sequence (P36888 whole entry): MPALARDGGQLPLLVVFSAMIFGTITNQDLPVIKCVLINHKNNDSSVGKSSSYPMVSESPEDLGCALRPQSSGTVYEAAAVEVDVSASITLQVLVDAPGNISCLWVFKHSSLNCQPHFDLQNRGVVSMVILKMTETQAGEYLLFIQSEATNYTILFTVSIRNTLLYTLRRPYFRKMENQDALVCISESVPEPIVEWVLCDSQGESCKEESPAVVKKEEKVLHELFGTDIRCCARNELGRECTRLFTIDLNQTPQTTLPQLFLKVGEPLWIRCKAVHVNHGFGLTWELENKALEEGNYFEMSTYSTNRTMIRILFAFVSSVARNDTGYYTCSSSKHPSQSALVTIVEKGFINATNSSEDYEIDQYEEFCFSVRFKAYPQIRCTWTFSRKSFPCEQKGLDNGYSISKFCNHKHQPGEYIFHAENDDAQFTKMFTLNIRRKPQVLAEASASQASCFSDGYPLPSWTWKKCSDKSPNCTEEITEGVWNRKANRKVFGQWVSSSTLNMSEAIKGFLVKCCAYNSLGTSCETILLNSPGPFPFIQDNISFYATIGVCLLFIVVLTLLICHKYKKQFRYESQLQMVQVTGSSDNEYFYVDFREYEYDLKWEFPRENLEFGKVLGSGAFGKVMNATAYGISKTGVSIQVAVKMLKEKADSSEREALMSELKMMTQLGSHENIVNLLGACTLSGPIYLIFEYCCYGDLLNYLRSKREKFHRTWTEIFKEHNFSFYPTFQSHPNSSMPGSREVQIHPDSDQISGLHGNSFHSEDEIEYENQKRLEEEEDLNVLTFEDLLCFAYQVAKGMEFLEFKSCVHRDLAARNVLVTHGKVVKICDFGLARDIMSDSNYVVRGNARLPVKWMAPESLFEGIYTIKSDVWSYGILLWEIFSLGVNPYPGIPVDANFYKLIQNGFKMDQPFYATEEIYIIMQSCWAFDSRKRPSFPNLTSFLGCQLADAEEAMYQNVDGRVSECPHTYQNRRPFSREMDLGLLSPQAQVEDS
The experiment can be described thus: Inhibition of Flt3 activity in human […] cells by phosphotyrosine cell-based ELISA.

This passage reports Activity, IC50 and inhibition results from ChEMBL document CHEMBL1156263, “Single agents with designed combination chemotherapy potential: synthesis and evaluation of substituted pyrimido[4,5-b]indoles as receptor tyrosine kinase and thymidylate synthase inhibitors and as antitumor agents” (J Med Chem, 2010).

Active and inactive are the calls of the source. The rule behind the calls is not given here.

T1 sequence (P27361 whole entry, looked up): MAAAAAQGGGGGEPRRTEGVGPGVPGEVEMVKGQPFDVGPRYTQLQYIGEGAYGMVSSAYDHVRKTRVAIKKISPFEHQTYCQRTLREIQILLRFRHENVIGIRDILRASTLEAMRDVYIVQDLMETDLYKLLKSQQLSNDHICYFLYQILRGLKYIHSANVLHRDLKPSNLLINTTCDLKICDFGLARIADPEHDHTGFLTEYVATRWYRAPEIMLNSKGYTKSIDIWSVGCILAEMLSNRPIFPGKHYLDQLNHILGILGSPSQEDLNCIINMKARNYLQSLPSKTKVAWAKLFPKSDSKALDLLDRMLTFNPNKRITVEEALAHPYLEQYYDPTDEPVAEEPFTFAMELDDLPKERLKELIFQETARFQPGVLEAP
T1 sequence (P28482 whole entry, looked up): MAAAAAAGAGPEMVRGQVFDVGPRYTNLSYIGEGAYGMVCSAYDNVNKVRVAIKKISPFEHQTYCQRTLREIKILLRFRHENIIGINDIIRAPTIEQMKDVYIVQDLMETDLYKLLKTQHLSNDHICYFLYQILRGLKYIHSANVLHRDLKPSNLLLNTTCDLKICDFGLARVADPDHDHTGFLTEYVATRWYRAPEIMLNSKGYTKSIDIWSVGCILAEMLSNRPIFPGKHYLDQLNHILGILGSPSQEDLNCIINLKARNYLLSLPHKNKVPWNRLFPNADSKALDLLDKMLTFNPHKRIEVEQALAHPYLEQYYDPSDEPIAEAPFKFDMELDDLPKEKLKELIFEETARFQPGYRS
Chain of Vascular endothelial growth factor receptor 1 (P17948 whole entry): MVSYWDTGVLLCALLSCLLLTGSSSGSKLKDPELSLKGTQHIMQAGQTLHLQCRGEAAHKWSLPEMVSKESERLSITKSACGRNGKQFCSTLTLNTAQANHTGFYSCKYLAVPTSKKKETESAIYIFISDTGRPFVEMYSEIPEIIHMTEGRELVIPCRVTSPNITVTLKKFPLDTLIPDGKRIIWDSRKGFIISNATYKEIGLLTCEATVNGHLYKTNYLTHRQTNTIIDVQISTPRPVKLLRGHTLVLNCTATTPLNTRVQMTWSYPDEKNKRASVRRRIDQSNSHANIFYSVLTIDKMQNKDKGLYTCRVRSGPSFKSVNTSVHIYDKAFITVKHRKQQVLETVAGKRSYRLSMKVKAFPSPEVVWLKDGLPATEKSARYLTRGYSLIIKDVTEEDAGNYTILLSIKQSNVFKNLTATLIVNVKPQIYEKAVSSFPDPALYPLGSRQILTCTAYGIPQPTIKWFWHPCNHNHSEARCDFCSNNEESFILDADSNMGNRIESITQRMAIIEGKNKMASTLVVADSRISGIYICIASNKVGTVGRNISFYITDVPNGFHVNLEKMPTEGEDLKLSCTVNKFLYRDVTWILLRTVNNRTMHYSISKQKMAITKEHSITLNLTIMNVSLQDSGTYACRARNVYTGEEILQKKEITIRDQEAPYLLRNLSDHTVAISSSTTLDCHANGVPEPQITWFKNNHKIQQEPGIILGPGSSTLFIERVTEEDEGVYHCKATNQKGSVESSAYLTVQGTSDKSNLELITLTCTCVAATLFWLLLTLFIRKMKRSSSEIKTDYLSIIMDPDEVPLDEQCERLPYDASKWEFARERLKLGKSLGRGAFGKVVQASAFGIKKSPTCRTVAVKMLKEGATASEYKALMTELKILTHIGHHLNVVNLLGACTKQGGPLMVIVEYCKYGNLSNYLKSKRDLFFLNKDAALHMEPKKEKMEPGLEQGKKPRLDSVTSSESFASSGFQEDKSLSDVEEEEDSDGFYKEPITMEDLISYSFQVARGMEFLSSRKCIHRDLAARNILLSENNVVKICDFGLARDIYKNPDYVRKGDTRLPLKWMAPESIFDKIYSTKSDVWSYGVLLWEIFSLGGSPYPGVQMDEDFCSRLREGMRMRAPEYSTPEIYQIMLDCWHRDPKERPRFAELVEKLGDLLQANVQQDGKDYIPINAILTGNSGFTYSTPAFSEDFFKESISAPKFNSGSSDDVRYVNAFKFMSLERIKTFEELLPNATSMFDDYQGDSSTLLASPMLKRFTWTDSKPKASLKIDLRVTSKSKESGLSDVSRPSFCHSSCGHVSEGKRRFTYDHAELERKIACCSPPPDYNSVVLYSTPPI
Chain of Vascular endothelial growth factor receptor 2 (P35968 whole entry): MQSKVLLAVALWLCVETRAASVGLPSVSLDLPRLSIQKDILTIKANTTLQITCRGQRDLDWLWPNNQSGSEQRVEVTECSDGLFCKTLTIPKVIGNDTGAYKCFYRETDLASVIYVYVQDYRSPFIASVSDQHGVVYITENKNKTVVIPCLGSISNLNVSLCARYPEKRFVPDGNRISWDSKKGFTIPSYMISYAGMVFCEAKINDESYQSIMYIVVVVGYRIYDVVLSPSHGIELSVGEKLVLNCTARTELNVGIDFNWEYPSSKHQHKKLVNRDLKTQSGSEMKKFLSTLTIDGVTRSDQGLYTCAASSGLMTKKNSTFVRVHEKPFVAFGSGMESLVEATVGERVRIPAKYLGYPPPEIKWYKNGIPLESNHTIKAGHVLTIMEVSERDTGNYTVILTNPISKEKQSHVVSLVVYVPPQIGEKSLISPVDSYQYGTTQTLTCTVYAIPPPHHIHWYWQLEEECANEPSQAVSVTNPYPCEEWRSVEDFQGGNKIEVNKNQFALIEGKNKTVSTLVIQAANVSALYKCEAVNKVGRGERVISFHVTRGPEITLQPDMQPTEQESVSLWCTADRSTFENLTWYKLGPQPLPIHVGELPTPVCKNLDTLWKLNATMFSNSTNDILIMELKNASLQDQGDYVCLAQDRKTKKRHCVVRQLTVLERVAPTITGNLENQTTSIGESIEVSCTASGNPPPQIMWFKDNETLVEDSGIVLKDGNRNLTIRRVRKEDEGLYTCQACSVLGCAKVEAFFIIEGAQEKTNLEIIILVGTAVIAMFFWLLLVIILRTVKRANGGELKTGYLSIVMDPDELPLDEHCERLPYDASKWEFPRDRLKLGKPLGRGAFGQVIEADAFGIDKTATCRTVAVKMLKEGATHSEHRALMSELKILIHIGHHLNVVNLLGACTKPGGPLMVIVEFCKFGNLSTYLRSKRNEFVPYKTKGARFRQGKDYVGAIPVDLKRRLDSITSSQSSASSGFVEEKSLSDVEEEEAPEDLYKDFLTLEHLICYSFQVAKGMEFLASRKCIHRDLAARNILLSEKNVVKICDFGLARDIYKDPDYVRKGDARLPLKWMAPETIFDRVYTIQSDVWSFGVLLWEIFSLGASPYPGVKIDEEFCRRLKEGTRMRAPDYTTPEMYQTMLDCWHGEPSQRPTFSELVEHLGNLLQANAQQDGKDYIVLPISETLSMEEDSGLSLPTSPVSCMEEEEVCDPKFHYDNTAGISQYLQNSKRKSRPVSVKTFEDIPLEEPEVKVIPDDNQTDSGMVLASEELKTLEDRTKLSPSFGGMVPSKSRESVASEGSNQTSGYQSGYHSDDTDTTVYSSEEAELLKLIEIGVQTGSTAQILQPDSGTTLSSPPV
Chain of Platelet-derived growth factor receptor beta (P09619 whole entry): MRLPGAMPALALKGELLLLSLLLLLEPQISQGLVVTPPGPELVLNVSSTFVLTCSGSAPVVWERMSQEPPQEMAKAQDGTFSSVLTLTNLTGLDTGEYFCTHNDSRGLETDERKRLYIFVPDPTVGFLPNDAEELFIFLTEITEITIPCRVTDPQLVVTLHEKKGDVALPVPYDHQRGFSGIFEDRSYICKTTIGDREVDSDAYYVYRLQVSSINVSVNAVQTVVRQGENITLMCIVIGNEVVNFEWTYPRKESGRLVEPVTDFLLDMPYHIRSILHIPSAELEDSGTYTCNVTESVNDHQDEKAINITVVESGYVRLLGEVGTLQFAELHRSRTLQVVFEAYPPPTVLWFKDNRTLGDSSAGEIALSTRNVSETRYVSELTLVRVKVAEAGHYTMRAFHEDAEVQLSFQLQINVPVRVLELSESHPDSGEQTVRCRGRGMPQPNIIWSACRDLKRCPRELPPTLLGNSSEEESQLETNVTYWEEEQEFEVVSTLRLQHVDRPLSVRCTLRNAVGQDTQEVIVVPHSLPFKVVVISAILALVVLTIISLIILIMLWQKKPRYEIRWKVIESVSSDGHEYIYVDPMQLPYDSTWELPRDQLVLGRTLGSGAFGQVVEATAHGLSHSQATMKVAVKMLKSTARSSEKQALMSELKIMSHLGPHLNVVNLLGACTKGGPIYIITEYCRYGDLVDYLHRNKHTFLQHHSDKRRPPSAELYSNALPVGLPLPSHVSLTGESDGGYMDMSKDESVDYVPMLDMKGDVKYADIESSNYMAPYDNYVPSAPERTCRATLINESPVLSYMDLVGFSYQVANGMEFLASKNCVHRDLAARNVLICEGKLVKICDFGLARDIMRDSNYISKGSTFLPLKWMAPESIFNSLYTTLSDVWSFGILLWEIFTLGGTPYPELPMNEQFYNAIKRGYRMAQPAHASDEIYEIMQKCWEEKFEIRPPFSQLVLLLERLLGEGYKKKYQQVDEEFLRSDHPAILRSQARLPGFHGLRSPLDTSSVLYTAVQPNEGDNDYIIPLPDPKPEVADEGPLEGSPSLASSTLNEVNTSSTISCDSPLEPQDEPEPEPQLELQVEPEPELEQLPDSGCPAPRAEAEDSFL

Regarding `Cc1ccc(Sc2cccc3[nH]c4nc(N)nc(N)c4c23)cc1`, the outcome in experiment [1] and in experiment [3] was Active. Besides, the IC50 (in general, the point on the concentration scale where inhibition reaches its midpoint) in [2] is 40.3 µM; in experiment [5] it was 10.4 µM; on Dihydrofolate reductase, greater than 31 µM; in experiment [7] it was 160 µM; in experiment [8], 56.3 µM; in experiment [9], 39.6 µM. Moreover, the inhibition (in general, the share of the control response that was lost under treatment) was 27% in experiment [4] and 7% in experiment [6].
With `COc1ccc(C(=O)Nc2sc3c(c2C(N)=O)CCCC3)cc1OC`, the 50% inhibitory concentration (IC50) in [9] turned out to be 2.9 µM.
Turning to `Nc1nc(N)c2c(n1)[nH]c1cccc(Sc3ccccc3)c12`, the outcome in experiment [1] and in [3] was Active. In addition, the inhibition amounted to 35% in experiment [4] and 17% in [6]. Further, the results for the IC50 (against Dihydrofolate reductase; in experiment [7]; in experiment [9]) were greater than 33 µM, 118 µM and 41.2 µM, respectively.
